Where two headings read alike, the source gives them in different places.
Tests used:
MiaPaca2 = assay: Drug dose-response curves, cell proliferation, MiaPaca2; assay type: cell-based; conditions: Homo sapiens, read-out: ROCK1 inhibition, IC50 values
Experimental: (§1) Efficacy of ROCK inhibition evaluated by drug dose-response curves: The small molecule ROCK1 inhibitors, fasudil and Y27632, were analyzed for their effects in pancreatic cancer cell lines. Drug dose-response curves were created to assess the efficacy of ROCK inhibition at 72 hours of drug exposure. FIG. 5A presents the drug dose-response curves for fasudil exposure in MiaPaca, Su8686, Panc-1 and CW1 cell line cells. FIG. 5B presents the drug dose-response curves for Y-27632 exposure in the same above mentioned cell lines. Gemcitabine, a nucleoside analog, replaces one of the building blocks, cytidine, during DNA replication and thus arrests tumor growth, which leads to cell death. Gemcitabine is shown for reference as illustrated in FIG. 5C.

CW1 = assay: Drug dose-response curves, cell proliferation, CW1; assay type: cell-based; conditions: Homo sapiens, read-out: ROCK1 inhibition, IC50 values
Experimental: as §1

Su8686 = assay: Drug dose-response curves, cell proliferation, Su8686; assay type: cell-based; conditions: Homo sapiens
Experimental: as §1

PDA cell proliferation = assay: Inhibition of PDA cell proliferation (summary over cell lines); assay type: cell-based; conditions: Homo sapiens; range over cell lines of TABLE 2; 72 hours; read-out: IC50s range, inhibition of PDA cell proliferation
Experimental: as §1

Panc-1 = assay: Drug dose-response curves, cell proliferation, Panc-1; assay type: cell-based; conditions: Homo sapiens, read-out: cell proliferation, IC50 values
Experimental: as §1

[1] = test system: co-culture of human pancreatic cancer-derived myofibroblasts and SU8686 cells; assay: Co-culture stained for aSMA and collagen 1 (FIG. 7); assay type: cell-based; conditions: 72 hours
[2] = test system: co-culture of human pancreatic cancer-derived fibroblasts and SU8686 cells; assay: Co-culture stained for cytokeratin and αSMA (FIG. 12); assay type: cell-based; conditions: 72 hours
Source text: Fasudil inhibits stellate cell proliferation and function: The effects of fasudil on the proliferation and expansion of the stromal compartment in a co-culture of human pancreatic cancer-derived fibroblasts and SU8686 cells were compared. […] Subsequently, cells were fixed and stained for the epithelial cell marker, cytokeratin, in green, and αSMA, in red.

Panc-1 cells [3] = assay: SRB (Sulphorhodamine) cell viability assay with fasudil; assay type: cell-based, human
Experimental: To further study the effects of fasudil at these concentrations on growth, an SRB (Sulphorhodamine) cell viability assay was performed. […] In both FIGS. 6A and 6B, “UT” stands for untreated; and “SFM” stands for serum-free media.

[4] = test system: collagen 1 in CW1 myofibroblasts and SU8686 cells; assay: Collagen 1 expression in single and co-cultures, dot blot (FIG. 8); assay type: cell-based, human
Experimental: Fasudil reduces collagen synthesis in co-cultured pancreatic cells: The effects of fasudil on the expression of collagen 1 in single and co-cultures of human myofibroblasts and SU8686 cells were examined. These cells were seeded and then treated with fasudil for 72 hours at the concentrations indicated. Treatment conditions are shown at top of the figure panel, and standard curve concentrations are shown below the figure panel (FIG. 8A). Calibrated collagen concentrations were shown in FIG. 8B (20 μg total protein loaded per sample). […] Fasudil inhibits collagen expression in cultured human stellate cells: The analysis of collagen expression in cultured human stellate cells exposed to Fasudil was carried out using quantitative PCR analysis of Collagen 1 mRNA levels.

[5] = test system: Collagen 1 mRNA in cultured human stellate cells; assay: Quantitative PCR analysis of Collagen 1 mRNA levels (FIG. 11); assay type: cell-based; conditions: highest concentration of fasudil (100 μm)
Experimental: Fasudil inhibits collagen expression in cultured human stellate cells: The analysis of collagen expression in cultured human stellate cells exposed to Fasudil was carried out using quantitative PCR analysis of Collagen 1 mRNA levels.

Panc-1 cells [6] = assay: Modified Boyden Chamber Assay, cell migration; assay type: cell-based, human; conditions: at both 500 μM and 20 μM
[7] = MIA PaCa-2, MiaPaca2 cell line, 72 hours of drug exposure
[8] = CW1 cell line, 72 hours of drug exposure
[9] = SU.86.86, Su8686 cell line, 72 hours of drug exposure, read-out: ROCK1 inhibition, IC50 values
[10] = Panc-1 cell line, 72 hours of drug exposure, read-out: ROCK1 inhibition, IC50 values

SMILES | IC50 (MiaPaca2; MIA PaCa-2, 72 h) | IC50 (CW1; 72 h) | IC50 (Su8686; SU.86.86, 72 h) | IC50 (PDA cell proliferation) | IC50 (Panc-1; PANC-1, 72 h) | inhibition of aSMA and collagen 1 expressing myofibroblasts ([1]; 50 μM, 25 μM, and 12 μM) | cell proliferation of both cancer cells and myofibroblasts relative to untreated ([1]; 100 μM) | inhibition of aSMA expressing cells (stellate cells) ([2]; 50 μM, 25 μM, and 12 μM) | cell proliferation of both cancer cells and stellate cells relative to untreated ([2]; 100 μM) | IC50 (MiaPaca2; [7]) | IC50 (CW1; [8]) | IC50 (Su8686; [9]) | cytotoxicity (Panc-1 cells [3]; 20 μM) | cell survival (Panc-1 cells [3]; 500 μM, 24 hours) | collagen synthesis relative to the untreated sample ([4]; 100 μM, 50 μM, and 25 μM, 72 hours) | collagen expression, dot blot on protein lysates ([4]; monocultured stellate cells (CW1) and co-cultured tumor/stellate cells (CW1/SU8686), 6-100 μm) | collagen expression (Collagen 1 mRNA) [5] | migrating cells relative to serum (chemoattractant) containing media control (Panc-1 cells [6]) | IC50 (Panc-1; [10])
CC(N)C1CCC(C(=O)Nc2ccncc2)CC1 (stereo not drawn) [Y27632, 4-(1-aminoethyl)-N-pyridin-4-yl-cyclohexane-1-carboxamide] | 6.8 µM | 6.4 µM | 27.9 µM | 6 to 71 µM | > 100 µM | – | – | – | – | – | – | – | – | – | – | – | – | – | –
O=S(=O)(c1cccc2cnccc12)N1CCCNCC1 [Fasudil, 5-(1,4-diazepan-1-ylsulfonyl)isoquinoline] | – | – | – | 6 to 71 µM | – | selectively inhibited | significant reduction in cell proliferation | selectively inhibited | significant reduction in cell proliferation | 55 µM | 66 µM | 71.2 µM | no significant cytotoxicity | 50.3% | significant reduction in collagen synthesis | Decreased collagen expression | three-fold decrease in collagen expression | significant reduction in migrating cells | > 100 µM
Nc1ccn([C@@H]2O[C@H](CO)[C@@H](O)C2(F)F)c(=O)n1 [Gemcitabine] | – | – | – | – | – | – | – | – | – | 0.056 µM | > 100 µM | 0.017 µM | – | – | – | – | – | – | > 100 µM
